The target of test [1] is T1, recombinant human CLK3 (Homo sapiens, UniProt P49761).
T1 construct: purchased Thermo Fisher Scientific PV3826
Kind of test: CLK3 kinase assay (LANCE Ultra). The class given is biochemical. The conditions noted are these: CLK3 0.5 nM, ATP 300 μM, 3 hours at 30° C. The essentials:
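Recombinant human CLK3 (0.5 nM) with ULight-CREBtide (50 nM) and 300 μM ATP, 3 h at 30 °C in kinase buffer; EDTA stop, then Eu-anti-phospho-CREB antibody (2 nM, 1 h RT), TR-FRET read at 665/620 nm. Inhibition normalized to DMSO and no-ATP wells; IC50 from 4-parameter fit, ten 1:3 concentrations in duplicate.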
A general note: In TR-FRET formats the signal depends on donor and acceptor labels being close together.

For test [2], the system named is CAL-51 cells. The experiment in a line: CAL-51 proliferation assay. The class given is cell-based. The conditions noted are these: Homo sapiens, CAL-51, 72 h, YO-PRO-1 Iodide readout. The essentials: (§1)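 Cells seeded at 750 per well, treated next day for 72 h at 37 °C with 0.5% final DMSO. Cell number read by YO-PRO-1 fluorescence after lysis, normalized to DMSO (100%) and time-zero cells (0%). GI50 from 4-parameter logistic fit, maximum constrained to 100%.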

Test [3] concerns MDA-MB-231 cells. Kind of test: MDA-MB-231 proliferation assay. The class given is cell-based. The conditions noted are these: Homo sapiens, MDA-MB-231, 72 h, YO-PRO-1 Iodide readout. In outline:
as §1

pIC50: −log10 of the molar value.

T1 sequence (P49761 whole entry): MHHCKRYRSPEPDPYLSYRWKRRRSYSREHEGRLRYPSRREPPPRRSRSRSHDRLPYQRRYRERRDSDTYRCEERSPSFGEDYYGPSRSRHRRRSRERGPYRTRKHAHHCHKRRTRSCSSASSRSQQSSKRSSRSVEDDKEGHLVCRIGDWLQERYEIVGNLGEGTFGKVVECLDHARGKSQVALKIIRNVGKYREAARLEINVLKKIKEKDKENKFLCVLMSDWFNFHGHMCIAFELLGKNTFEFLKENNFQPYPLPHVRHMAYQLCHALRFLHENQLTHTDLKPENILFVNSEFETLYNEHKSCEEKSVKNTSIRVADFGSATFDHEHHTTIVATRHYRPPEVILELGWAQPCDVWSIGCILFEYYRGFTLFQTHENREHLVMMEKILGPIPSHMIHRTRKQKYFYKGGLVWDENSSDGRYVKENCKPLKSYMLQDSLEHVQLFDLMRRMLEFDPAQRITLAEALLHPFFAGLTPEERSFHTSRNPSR

Regarding `CN(CCNS(C)(=O)=O)c1c(O[C@H]2CC[C@H](N)CC2)ccc2c1CC(C)(C)c1c(N)ncnc1-2` [Example 39, N-[2-[[4-amino-8-(trans-4-aminocyclohexoxy)-5,5-dimethyl-6H-benzo[h]quinazolin-7-yl]-methyl-amino]ethyl]methanesulfonamide], the pIC50 – broadly, the negative decadic logarithm of the IC50, by convention in mol/L – in test [1] is 6.00 to 7.00. The GI50 (commonly the concentration giving 50% growth inhibition) was 100 to 2000 nM in test [2] and over 2000 nM in test [3].

Take `CN(CCC#N)c1c(O[C@H]2CC[C@H](N(C)C)CC2)ccc2c1CC(C)(C)c1c(N)ncnc1-2` [Example 96]: the pIC50 in test [1] was over 7.52. The GI50 in test [2] and in test [3] was under 100 nM in each case.

`CC1(C)Cc2c(ccc(O[C@H]3CC[C@H](N)CC3)c2N)-c2ncnc(N)c21` [Example 5, 8-(trans-4-aminocyclohexoxy)-5,5-dimethyl-6H-benzo[h]quinazoline-4,7-diamine]: the pIC50 in test [1] is over 7.52. For the same molecule, the GI50 in test [2] and in test [3] was 100 to 2000 nM in each case.

As for `CC(=O)Nc1c(O[C@H]2CC[C@H](N)CC2)ccc2c1CC(C)(C)c1c(N)ncnc1-2` [Example 6, N-[4-amino-8-(trans-4-aminocyclohexoxy)-5,5-dimethyl-6H-benzo[h]quinazolin-7-yl]acetamide], the pIC50 in test [1] was 6.00 to 7.00. The values for the GI50 in test [2] and in test [3] were 100 to 2000 nM and over 2000 nM, respectively.

For the molecule `CN(c1c(O[C@H]2CC[C@H](N)CC2)ccc2c1CC(C)(C)c1c(N)ncnc1-2)S(=O)(=O)c1ccc(F)cc1` [Example 114, N-[4-amino-8-(trans-4-aminocyclohexoxy)-5,5-dimethyl-6H-benzo[h]quinazolin-7-yl]-4-fluoro-N-methyl-benzenesulfonamide], the pIC50 in test [1] is over 7.52. The GI50 in test [2] and in test [3] was under 100 nM in each case.

Regarding `CNc1c(O[C@H]2CC[C@H](N)CC2)ccc2c1CC(C)(C)c1c(N)ncnc1-2` [Example 68, 8-(trans-4-aminocyclohexoxy)-N7,5,5-trimethyl-6H-benzo[h]quinazoline-4,7-diamine], the pIC50 in test [1] is 7.00 to 7.52. Also, the GI50 in test [2] was under 100 nM; in test [3], 100 to 2000 nM.

As to `CN(CCC#N)c1c(O[C@H]2CC[C@H](N3CCOCC3)CC2)ccc2c1CC(C)(C)c1c(N)ncnc1-2` [Example 52, 3-[[4-amino-5,5-dimethyl-8-(trans-4-morpholinocyclohexoxy)-6H-benzo[h]quinazolin-7-yl]-methyl-amino]propanenitrile], the pIC50 in test [1] was over 7.52. Also, the GI50 in test [2] and in test [3] was under 100 nM each time.

With `COCCN(C)c1c(O[C@H]2CC[C@@H](N)CC2)ccc2c1CC1(CCCC1)c1c(N)ncnc1-2` [Example 75, 8-(cis-4-aminocyclohexoxy)-N7-(2-methoxyethyl)-N7-methyl-spiro[6H-benzo[h]quinazoline-5,1′-cyclopentane]-4,7-diamine], the pIC50 in test [1] was over 7.52. The concentration for 50% growth inhibition (GI50) in test [2] is under 100 nM; in test [3], 100 to 2000 nM.

Consider `CN(CCO)c1c(O[C@H]2CC[C@H](N)CC2)ccc2c1CC1(CCCC1)c1c(N)ncnc1-2` [Example 59, 2-[[4-amino-8-(4-trans-aminocyclohexoxy)spiro[6H-benzo[h]quinazoline-5,1′-cyclopentane]-7-yl]-methyl-amino]ethanol], for which the negative-log IC50 (pIC50) in test [1] was over 7.52. Besides, the GI50 in test [2] is under 100 nM; in test [3], 100 to 2000 nM.

For the molecule `CN(CCC#N)c1c(Br)ccc2c1CC(C)(C)c1c(N)ncnc1-2` [Example 115, 3-[(4-amino-8-bromo-5,5-dimethyl-6H-benzo[h]quinazolin-7-yl)-methyl-amino]propanenitrile], the negative logarithm of the IC50 (pIC50) in test [1] is over 7.52. For the same molecule, the concentration for 50% growth inhibition (GI50) in test [2] was under 100 nM; in test [3], 100 to 2000 nM.

`CN(CC1(C#N)CC1)c1c(O[C@H]2CC[C@H](N)CC2)ccc2c1CC(C)(C)c1c(N)ncnc1-2` [Example 48, 1-[[[4-amino-8-(trans-4-aminocyclohexoxy)-5,5-dimethyl-6H-benzo[h]quinazolin-7-yl]-methyl-amino]methyl]cyclopropanecarbonitrile]: the pIC50 in test [1] is over 7.52. For the same molecule, the GI50 in test [2] and in test [3] was under 100 nM each time.

Take `CC1(C)Cc2c(ccc3c2NCCO3)-c2ncnc(N)c21` [Example 3, 6,6-dimethyl-2,3,4,5-tetrahydroquinazolino[7,8-f][1,4]benzoxazin-7-amine]: the pIC50 in test [1] is 6.00 to 7.00. Further, the GI50 is 100 to 2000 nM in test [2] and over 2000 nM in test [3].

Consider `CN(CCC(C)(C)O)c1c(O[C@H]2CC[C@H](N)CC2)ccc2c1CC(C)(C)c1c(N)ncnc1-2` [Example 111, 4-[[4-amino-8-(trans-4-aminocyclohexoxy)-5,5-dimethyl-6H-benzo[h]quinazolin-7-yl]-methyl-amino]-2-methyl-butan-2-ol], for which the pIC50 in test [1] is 6.00 to 7.00. In addition, the GI50 in test [2] and in test [3] was 100 to 2000 nM in each case.

Regarding `CN(CC(C)(C)C(N)=O)c1c(O[C@H]2CC[C@H](N)CC2)ccc2c1CC(C)(C)c1c(N)ncnc1-2` [Example 88, 3-[[4-amino-8-(trans-4-aminocyclohexoxy)-5,5-dimethyl-6H-benzo[h]quinazolin-7-yl]-methyl-amino]-2,2-dimethyl-propanamide], the pIC50 in test [1] was 7.00 to 7.52. Moreover, the GI50 is 100 to 2000 nM in test [2] and over 2000 nM in test [3].

As for `CC1(C)Cc2c(ccc(O[C@H]3CC[C@H](N)CC3)c2NC2CC2)-c2ncnc(N)c21` [Example 84, 8-(trans-4-aminocyclohexoxy)-N7-cyclopropyl-5,5-dimethyl-6H-benzo[h]quinazoline-4,7-diamine], the pIC50 in test [1] was 7.00 to 7.52. Besides, the GI50 was under 100 nM in test [2] and 100 to 2000 nM in test [3].

In the case of `CN[C@H]1CC[C@H](Oc2ccc3c(c2N(C)CCC#N)CC(C)(C)c2c(N)ncnc2-3)CC1` [Example 99, 3-[[4-amino-5,5-dimethyl-8-[trans-4-(methylamino)cyclohexoxy]-6H-benzo[h]quinazolin-7-yl]-methyl-amino]propanenitrile], the negative-log IC50 (pIC50) in test [1] is over 7.52. Moreover, the concentration for 50% growth inhibition (GI50) in test [2] and in test [3] was under 100 nM in each case.

For the molecule `CCOC(=O)CNc1c(O[C@H]2CC[C@@H](N)CC2)ccc2c1CC1(CCCC1)c1c(N)ncnc1-2` [Example 65, ethyl 2-[[4-amino-8-(cis-4-aminocyclohexoxy)spiro[6H-benzo[h]quinazoline-5,1′-cyclopentane]-7-yl]amino]acetate], in test [1], the pIC50 is 7.00 to 7.52. Also, the concentration for 50% growth inhibition (GI50) in test [2] and in test [3] was 100 to 2000 nM throughout.

As to `CC1(C)Cc2c(ccc(O[C@H]3CC[C@H](N)CC3)c2N2CCCCC2)-c2ncnc(N)c21` [Example 9, 8-(trans-4-aminocyclohexoxy)-5,5-dimethyl-7-(1-piperidyl)-6H-benzo[h]quinazolin-4-amine], the pIC50 in test [1] was over 7.52. The results for the 50% growth inhibitory concentration (GI50) in test [2] and in test [3] were under 100 nM and 100 to 2000 nM, respectively.

`CN(c1c(O[C@H]2CC[C@H](N)CC2)ccc2c1CC(C)(C)c1c(N)ncnc1-2)S(=O)(=O)CCC(=O)O` [Example 69, 3-[[4-amino-8-(trans-4-aminocyclohexoxy)-5,5-dimethyl-6H-benzo[h]quinazolin-7-yl]-methyl-sulfamoyl]propanoic acid]: the pIC50 in test [1] is over 7.52. Besides, the GI50 in test [2] and in test [3] was over 2000 nM in each case.

`COCCNc1c(O[C@H]2CC[C@@H](N)CC2)ccc2c1CC1(CCCC1)c1c(N)ncnc1-2` [Example 87, 8-(cis-4-aminocyclohexoxy)-N7-(2-methoxyethyl)spiro[6H-benzo[h]quinazoline-5,1′-cyclopentane]-4,7-diamine]: the pIC50 in test [1] was 7.00 to 7.52. Besides, the GI50 in test [2] and in test [3] was 100 to 2000 nM throughout.

For the molecule `CN(CC1CCOCC1)c1c(O[C@H]2CC[C@@H](N)CC2)ccc2c1CC(C)(C)c1c(N)ncnc1-2` [Example 29, 8-(cis-4-aminocyclohexoxy)-N7,5,5-trimethyl-N7-(tetrahydropyran-4-ylmethyl)-6H-benzo[h]quinazoline-4,7-diamine], the pIC50 in test [1] is 6.00 to 7.00. The GI50 in test [2] and in test [3] was 100 to 2000 nM throughout.

Consider `CC1(C)Cc2c(ccc(O[C@H]3CC[C@H](N)CC3)c2N2CCC(O)C2)-c2ncnc(N)c21` (single isomer, unassigned) [Example 15, 1-[4-amino-8-(trans-4-aminocyclohexoxy)-5,5-dimethyl-6H-benzo[h]quinazolin-7-yl]pyrrolidin-3-ol], for which, in test [1], the pIC50 is over 7.52. The figures for the GI50 in test [2] and in test [3] were under 100 nM and 100 to 2000 nM, respectively.

As for `CN(CC#N)S(=O)(=O)c1c(O[C@H]2CC[C@H](N)CC2)ccc2c1CC(C)(C)c1c(N)ncnc1-2` [Example 113, 4-amino-8-(trans-4-aminocyclohexoxy)-N-(cyanomethyl)-N,5,5-trimethyl-6H-benzo[h]quinazoline-7-sulfonamide], the pIC50 in test [1] is 7.00 to 7.52. The 50% growth inhibitory concentration (GI50) in test [2] and in test [3] was 100 to 2000 nM in each case.

On to `CC1(C)Cc2c(ccc(O[C@H]3CC[C@H](N)CC3)c2N2CCC(C#N)C2)-c2ncnc(N)c21` (single isomer, unassigned) [Example 49, 1-[4-amino-8-(trans-4-aminocyclohexoxy)-5,5-dimethyl-6H-benzo[h]quinazolin-7-yl]pyrrolidine-3-carbonitrile], for which, in test [1], the pIC50 was over 7.52. In addition, the GI50 in test [2] and in test [3] was under 100 nM each time.

Values taken from patent publication US20260159486A1, “BENZO[H]QUINAZOLINE-4-AMINE DERIVATIVES FOR THE TREATMENT OF CANCER” (Redona Therapeutics, Inc., priority 2021, published 2026).
